Tested on: seasonal allergic rhinitis
Test: Double-blinded, randomized clinical trials in seasonal allergic rhinitis patients
Method: Efficacy endpoints in all the studies were Total Symptom Score, Total Nasal Symptom Score, Total Non-nasal Symptom Score, and Health Quality of Life (HQOL) analysis in efficacy trials. […] This parameter measures the total symptom relief by the patient after 24 hours before taking the next day dose.

Clc1ccc2c(c1)CCc1cccnc1C2=C1CCNCC1 [Desloratadine, desloratadine]
Total symptom scores (5 mg once daily, adult and adolescent seasonal allergic rhinitis patients): significantly reduced | Reduction of nasal symptoms versus placebo (5 mg, seasonal allergic rhinitis patients): significantly (p<0.01) more effective than placebo | AM NOW total symptom score (24 hours after dose, over the entire dosage range): Statistically significant (p<0.05) reductions were maintained for the full 24 hour dosing interval

Source: US20060154948A1, “Treating allergic and inflammatory conditions” (priority 2005, published 2006)
